Reference: ChEMBL document CHEMBL4364310, “Design, synthesis and biological evaluation of novel α-aminophosphonate oxadiazoles via optimized iron triflate catalyzed reaction as apoptotic inducers” (Eur J Med Chem, 2019)

Experiments:
HCT-116 [1] = assay: Antiproliferative activity against human HCT116 cells assessed as reduction in cell viability incubated for 48 hrs by MTT assay; type: functional, cell-based; conditions: HCT-116, 48 h
MCF7 = assay: Antiproliferative activity against human MCF7 cells assessed as reduction in cell viability incubated for 48 hrs by MTT assay; type: functional, cell-based; conditions: MCF7, 48 h
HepG2 = assay: Antiproliferative activity against human HepG2 cells assessed as reduction in cell viability incubated for 48 hrs by MTT assay; type: functional, cell-based; conditions: HepG2, 48 h
HCT-116 [2] = assay: Induction of apoptosis in human HCT116 cells assessed as increase in Bax level by ELISA relative to control; type: functional
HCT-116 [3] = assay: Induction of apoptosis in human HCT116 cells assessed as decrease in Bcl 2 level by ELISA relative to control (reference value: 10.1 +/- 0.73 ng/ml); type: functional
HCT-116 [4] = assay: Induction of apoptosis in human HCT116 cells assessed as increase in caspase 9 level by ELISA relative to control; type: functional
FHC = assay: Cytotoxicity against human FHC cells assessed as reduction in cell viability incubated for 48 hrs by MTT assay; type: cell-based
HCT-116 [5] = assay: Induction of cell cycle arrest in human HCT116 cells assessed as accumulation in G2/M phase incubated for 24 hrs by annexin V FITC and propidium iodide staining based flow cytometry (reference value: 18.29 %); type: functional
HCT-116 [6] = assay: Induction of apoptosis in human HCT116 cells assessed as late apoptotic cells incubated for 24 hrs by annexin V FITC and propidium iodide staining based flow cytometry (reference value: 0.39 %); type: functional
HCT-116 [7] = assay: Induction of apoptosis in human HCT116 cells assessed as necrotic cells incubated for 24 hrs by annexin V FITC and propidium iodide staining based flow cytometry (reference value: 0.46 %); type: functional
HCT-116 [8] = assay: Induction of cell cycle arrest in human HCT116 cells assessed as accumulation in G0/G1 phase incubated for 24 hrs by annexin V FITC and propidium iodide staining based flow cytometry (reference value: 46.72 %); type: functional
HCT-116 [9] = assay: Induction of apoptosis in human HCT116 cells assessed as early apoptotic cells incubated for 24 hrs by annexin V FITC and propidium iodide staining based flow cytometry (reference value: 0.9 %); type: functional
HCT-116 [10] = assay: Induction of cell cycle arrest in human HCT116 cells assessed as accumulation in S phase incubated for 24 hrs by annexin V FITC and propidium iodide staining based flow cytometry (reference value: 34.99 %); type: functional
HCT-116 [11] = assay: Induction of apoptosis in human HCT116 cells assessed as increase in cytochrome C by ELISA relative to control; type: functional
HCT-116 [12] = assay: Induction of apoptosis in human HCT116 cells assessed as increase in caspase 8 level by ELISA relative to control; type: functional
[13] = Selectivity index, ratio of IC50 for human FHC cells to IC50 for human HCT116 cells; type: toxicity; conditions: FHC cells and HCT116 cells, read-out: Ratio IC50
HCT-116 [14] = assay: Induction of apoptosis in human HCT116 cells assessed as increase in caspase 3 level by ELISA relative to control; type: functional
HCT-116 [15] = assay: Induction of cell cycle arrest in human HCT116 cells assessed as accumulation in preG phase incubated for 24 hrs by annexin V FITC and propidium iodide staining based flow cytometry (reference value: 1.75 %); type: functional

Structure (SMILES)	IC50 (HCT-116 [1])	IC50 (MCF7)	IC50 (HepG2)	other results
CCOP(=O)(OCC)C(NNC(=O)CSc1nnc(-c2ccncc2)o1)c1ccc(O)c(O)c1 (stereo unspecified)	21.1 µM	63.4 µM	27.3 µM	–
CCOP(=O)(OCC)C(NNC(=O)CSc1nnc(-c2ccncc2)o1)c1ccc(F)cc1 (stereo unspecified)	31.3 µM	70.6 µM	21.5 µM	–
CCOP(=O)(OCC)C(NNC(=O)CSc1nnc(-c2ccncc2)o1)c1ccc(C)cc1 (stereo unspecified)	17.6 µM	86.3 µM	19.5 µM	–
CCOP(=O)(OCC)C(NNC(=O)CSc1nnc(-c2ccncc2)o1)c1ccccc1 (stereo unspecified)	22.5 µM	99.1 µM	23.5 µM	–
CCOP(=O)(OCC)C(NNC(=O)CSc1nnc(-c2ccncc2)o1)c1ccc(Br)cc1 (stereo unspecified)	17.3 µM	64.4 µM	31 µM	–
CCOP(=O)(OCC)C(NNC(=O)CSc1nnc(-c2ccncc2)o1)c1cccc(OC)c1 (stereo unspecified)	19.2 µM	52.3 µM	53.9 µM	–
CCOP(=O)(OCC)C(NNC(=O)CSc1nnc(-c2ccncc2)o1)c1cc(OC)ccc1OC (stereo unspecified)	24.6 µM	61.6 µM	20.3 µM	–

Now from value to compound, other results behind:

IC50 (HCT-116 [1])	IC50 (MCF7)	IC50 (HepG2)	Structure (SMILES)	other results
17.1 µM	47.8 µM	13.9 µM	CCOP(=O)(OCC)C(NNC(=O)CSc1nnc(-c2ccncc2)o1)c1cccs1 (stereo unspecified)	–
14.6 µM	52.9 µM	14.8 µM	CCOP(=O)(OCC)C(NNC(=O)CSc1nnc(-c2ccncc2)o1)c1ccc(O)cc1 (stereo unspecified)	–
12.7 µM	41.7 µM	13.6 µM	CCOP(=O)(OCC)C(NNC(=O)CSc1nnc(-c2ccncc2)o1)c1ccc(C#N)cc1 (stereo unspecified)	–
9.5 µM	57.3 µM	25.8 µM	CCOP(=O)(OCC)C(NNC(=O)CSc1nnc(-c2ccncc2)o1)c1ccc2ccccc2c1 (stereo unspecified)	fold change (FC) (HCT-116 [2]): 5.78; Activity (HCT-116 [3]): 5.945 ng/mL; fold change (FC) (HCT-116 [4]): 8.85; IC50 (FHC): 23.4 µM; Activity (HCT-116 [5]): 37.97%; Activity (HCT-116 [6]): 12.51%; Activity (HCT-116 [7]): 2.14%; Activity (HCT-116 [8]): 30.56%; Activity (HCT-116 [9]): 4.59%; Activity (HCT-116 [10]): 31.47%; fold change (FC) (HCT-116 [11]): 5.69; fold change (FC) (HCT-116 [12]): 3.64; selectivity ratio [13]: 2.46; fold change (FC) (HCT-116 [14]): 5.99; Activity (HCT-116 [15]): 19.24%
9.2 µM	62.9 µM	19.2 µM	CCOP(=O)(OCC)C(NNC(=O)CSc1nnc(-c2ccncc2)o1)c1ccccc1Cl (stereo unspecified)	fold change (FC) (HCT-116 [2]): 6.18; Activity (HCT-116 [3]): 5.088 ng/mL; fold change (FC) (HCT-116 [4]): 11.61; IC50 (FHC): 35.9 µM; Activity (HCT-116 [5]): 46.33%; Activity (HCT-116 [6]): 15.69%; Activity (HCT-116 [7]): 3.28%; Activity (HCT-116 [8]): 24.91%; Activity (HCT-116 [9]): 7.26%; Activity (HCT-116 [10]): 28.76%; fold change (FC) (HCT-116 [11]): 6.72; fold change (FC) (HCT-116 [12]): 6.4; selectivity ratio [13]: 3.9; fold change (FC) (HCT-116 [14]): 7.78; Activity (HCT-116 [15]): 26.23%
15 µM	58.8 µM	18.1 µM	CCOP(=O)(OCC)C(NNC(=O)CSc1nnc(-c2ccncc2)o1)c1ccc([N+](=O)[O-])cc1 (stereo unspecified)	–
9.4 µM	–	10.4 µM	COc1cccc2c1C(=O)c1c(O)c3c(c(O)c1C2=O)C[C@@](O)(C(=O)CO)C[C@@H]3O[C@H]1C[C@H](N)[C@H](O)[C@H](C)O1 [DOXORUBICIN]	–
